Assay results as given in patent publication US20160143944A1, “ANTIMICROBIAL COMPOSITIONS COMPRISING HYPOCHLOROUS ACID AND SILVER” (PURICOE, INC., priority 2013, published 2016).

Tested on: Pseudomonas aeruginosa biofilm
Experiment: in vitro wound biofilm model (collagen matrix), biocidal effect
Format: cell-based
Conditions: 20 min at 35° C., 24 h biofilm in collagen matrix
Experimental: A biofilm test was conducted using hypochlorous acid solutions containing either 200 ppm or 600 ppm AFC. A solution containing a […] combination of silver chelate (30 ppm) and hypochlorous acid (600 ppm) which yielded a final concentration of 200 ppm AFC was also tested. Specifically, the biocidal effects of the solutions were tested using an in vitro wound biofilm model as described in […] et al. (2009), Molnlycke Healthcare. Briefly, a collagen solution was prepared in simulated wound fluid and the collagen was allowed to polymerize at 35° C. for one hour. The collagen matrix was subsequently innoculated with approximately 10^4 colony forming units (CFU) of Pseudomonas aeruginosa and incubated for twenty-four hours. The hypochlorous acid solutions were added to each matrix and incubated at 35° C. for twenty minutes. The tubes were centrifuged to separate the test solutions from the matrices. Subsequently, each matrix was digested with collagenase, washed and any surviving cells were recovered. A biofilm test was conducted to compare the biocidal effects of various hypochlorous acid solutions with or without silver additives, either in form of potassium silver citrate or silver chelate. Specifically, the effects of the solutions on P. aeruginosa biofilm were assessed using an in vitro wound biofilm model as described above. […]

## OCl [hypochlorous acid solution, hypochlorous acid]
200 ppm AFC hypochlorous acid solution
  log reduction of P. aeruginosa colony forming units (CFU): one
600 ppm AFC hypochlorous acid solution
  log reduction of P. aeruginosa colony forming units (CFU): seven
